Source: patent US10738056B2 (Aduro BioTech, Inc., priority 2017, dated 2020)

How the values were obtained:
[1] = target: Human cGAS amino acids 155-522 (Homo sapiens (Human), UniProt Q8N884); assay: cGAS biochemical activity assay (ATP remaining, Kinase-Glo Max luminescence); settings: human cGAS 155-522, ATP remaining (Kinase-Glo Max); read-out: cGAS IC50
[2] = test system: MCP-1/CCL2 secretion by Trex1-KO BMM; assay: Inhibition of MCP-1/CCL2 secretion by Trex1-KO bone marrow-derived macrophages; type: cell-based, mice; set-up: key to BMM IC50 M (MCP-1): A: an IC50 value less than 5 μM; B: an IC50 value between 5 and 20 μM; where an IC50 value could not be calculated from the data; settings: MCP-1 secretion; for IC50: Mus musculus, Macrophage, read-out: BMM IC50 M (MCP-1)
Protocol: (§1) A cellular assay can be used to asses the compounds of the invention for their ability to inhibit cytokine production. Bone marrow macrophages harvested from mice can be used to determine response as a function of compound concentration.
(§2) The inhibition of secreted cytokine was measured in bone marrow-derived macrophages (BMMs) from diseased mice to evaluate the potency of compounds of the invention as described herein. […] To derive bone marrow macrophages, marrow extracted from the femurs and tibias were harvested from Trex1-KO mice was cultured in growth media supplemented with macrophage colony-stimulating factor (M-CSF). Differentiated BMM were harvested and frozen for subsequent experimentation. For treatment with compound C1089 (see Example 13), a frozen stock of Trex1-KO BMM was thawed and 1×10^5 cells were plated in 96 well format. BMMs were treated with a dilution series of C1089 and incubated overnight at 37° C. 5% CO2, at which point cellular supernatants were harvested and stored at −80° C. for subsequent analysis. The media used for this dilution series was without FBS. Remaining cells were evaluated for viability using Cell Titer Glo 2.0 kit according to the manufacturer instructions. BMM supernatants were evaluated for the secreted cytokine […] (RANTES/CCL5) or for secreted cytokine monocyte chemoattractant protein 1 (MCP-1/CCL2) using cytometric bead array mouse Flex Set kits (BD Biosciences). Cytokine concentration was calculated from a standard curve and normalized to vehicle (DMSO) treated cells.

[3] = test system: RANTES/CCL5 secretion by Trex1-KO BMM; assay: Inhibition of RANTES/CCL5 secretion by Trex1-KO bone marrow-derived macrophages; type: cell-based, mice; set-up: key to BMM IC50 R (RANTES): A: an IC50 value less than 5 μM; B: an IC50 value between 5 and 20 μM; where an IC50 value could not be calculated from the data; settings: RANTES secretion; for IC50: Mus musculus, Macrophage, read-out: BMM IC50 R (RANTES)
Protocol: as §1, §2

[4] = test system: cGAS/STING pathway in THP1 cells; assay: THP1 cell-based cGAS/STING pathway activity assay (IRF-3-linked luciferase reporter); settings: Homo sapiens, THP-1
In short: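 THP1 cells carrying an IRF-3-driven luciferase reporter were read across a range of compound concentrations, and IC50 values were derived from these concentration responses; the assay upper limit was 100 μM.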

Human cGAS amino acids 155-522, sequence (Q8N884 157-522): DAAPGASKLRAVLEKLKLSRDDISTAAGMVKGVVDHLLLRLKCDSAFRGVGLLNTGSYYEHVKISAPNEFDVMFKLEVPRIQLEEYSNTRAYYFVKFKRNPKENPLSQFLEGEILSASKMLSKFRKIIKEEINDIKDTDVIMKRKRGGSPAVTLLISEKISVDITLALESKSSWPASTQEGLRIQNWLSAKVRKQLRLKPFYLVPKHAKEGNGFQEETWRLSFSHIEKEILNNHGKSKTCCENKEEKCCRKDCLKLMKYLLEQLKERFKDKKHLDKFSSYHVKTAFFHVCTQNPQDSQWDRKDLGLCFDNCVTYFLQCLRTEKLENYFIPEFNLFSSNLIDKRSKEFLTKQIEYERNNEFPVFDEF

| Compound | IC50 [1] [µM] | BMM IC50 M (MCP-1) [2] | BMM IC50 R (RANTES) [3] | IC50 [4] [µM] | IC50 [2] [µM] | IC50 [3] [µM] |
| --- | --- | --- | --- | --- | --- | --- |
| CO[C@@](c1ccccc1)(c1nnc(-c2c(C)[nH]c3c(-c4ccccc4)c(C(F)(F)F)nn3c2=O)o1)C(F)(F)F [Compound D1028, (S)-5-methyl-3-phenyl-6-(5-(2,2,2-trifluoro-1-methoxy-1-phenylethyl)-1,3,4-oxadiazol-2-yl)-2-(trifluoromethyl)pyrazolo[1,5-a]pyrimidin-7(4H)-one] | < 20 | C | C | > 100 |  |  |
| COc1nccc2oc(-c3c(C)[nH]c4c(-c5ccccc5)c(C#N)nn4c3=O)nc12 [Compound C1167, 6-(4-methoxyoxazolo[4,5-c]pyridin-2-yl)-5-methyl-7-oxo-3-phenyl-4,7-dihydropyrazolo[1,5-a]pyrimidine-2-carbonitrile] | < 20 | C | C | < 20 |  |  |
| Cc1[nH]c2c(-c3ccccc3)c(C(F)(F)F)nn2c(=O)c1-c1nc2c(OCC(=O)O)cccc2o1 [Compound C1117, 2-((2-(5-methyl-7-oxo-3-phenyl-2-(trifluoromethyl)-4,7-dihydropyrazolo[1,5-a]pyrimidin-6-yl)benzo[d]oxazol-4-yl)oxy)acetic acid] | < 20 | C | C | > 100 |  |  |
| COc1cccc2oc(-c3c(SC)[nH]c4c(-c5ccccc5)c(C(F)(F)F)nn4c3=O)nc12 [Compound C1121, 6-(4-methoxybenzo[d]oxazol-2-yl)-5-(methylthio)-3-phenyl-2-(trifluoromethyl)pyrazolo[1,5-a]pyrimidin-7(4H)-one] | < 20 |  | C | < 20 | < 5 |  |
| COc1ccc(Br)c2oc(-c3c(C)[nH]c4c(-c5ccccc5)c(C(F)(F)F)nn4c3=O)nc12 [Compound C1081, 6-(7-bromo-4-methoxybenzo[d]oxazol-2-yl)-5-methyl-3-phenyl-2-(trifluoromethyl)pyrazolo[1,5-a]pyrimidin-7(4H)-one] | < 20 |  |  | < 20 | 5 to 20 | 5 to 20 |
| COc1cc(Cl)cc(NC(=O)c2c(C)[nH]c3c(-c4ccccc4)c(C(F)(F)F)nn3c2=O)c1 [Compound A1134, N-(3-chloro-5-methoxyphenyl)-5-methyl-7-oxo-3-phenyl-2-(trifluoromethyl)-4,7-dihydropyrazolo[1,5-a]pyrimidine-6-carboxamide] | < 20 |  |  | < 20 | < 5 | < 5 |
| COc1cccc2oc(-c3c(CC(=O)O)[nH]c4c(-c5ccccc5)c(C(F)(F)F)nn4c3=O)nc12 [Compound C1147, 2-(6-(4-methoxybenzo[d]oxazol-2-yl)-7-oxo-3-phenyl-2-(trifluoromethyl)-4,7-dihydropyrazolo[1,5-a]pyrimidin-5-yl)acetic acid] | 20 to 250 | C | C |  |  |  |
| COCc1[nH]c2c(-c3ccccc3)c(C(F)(F)F)nn2c(=O)c1-c1c(COC)[nH]c2c(-c3ccccc3)c(C(F)(F)F)nn2c1=O [Compound C1029, 5,5′-bis(methoxymethyl)-3,3′-diphenyl-2,2′-bis(trifluoromethyl)-[6,6′-bipyrazolo[1,5-a]pyrimidine]-7,7′(4H,4′H)-dione] | 20 to 250 | C | C |  |  |  |
| Cc1[nH]c2c(-c3ccccc3)c(C(F)(F)F)nn2c(=O)c1C(=O)Nc1ccccc1NS(=O)(=O)c1ccccc1 [Compound A1059, 5-methyl-7-oxo-3-phenyl-N-(2-(phenylsulfonamido)phenyl)-2-(trifluoromethyl)-4,7-dihydropyrazolo[1,5-a]pyrimidine-6-carboxamide] | < 20 | C |  | < 20 |  |  |
| COc1ccccc1NC(=O)c1c(C)[nH]c2c(C3CCCC3)c(C(F)(F)F)nn2c1=O [Compound A1052, 3-cyclopentyl-N-(2-methoxyphenyl)-5-methyl-7-oxo-2-(trifluoromethyl)-4,7-dihydropyrazolo[1,5-a]pyrimidine-6-carboxamide] | 20 to 250 | C |  |  |  |  |
| COc1cccc2c1nc(-c1c(C)[nH]c3c(-c4ccccc4)c(C(F)(F)F)nn3c1=O)n2C1CCCCC1 [Compound C1176, 6-(1-cyclohexyl-4-methoxy-1H-benzo[d]imidazol-2-yl)-5-methyl-3-phenyl-2-(trifluoromethyl)pyrazolo[1,5-a]pyrimidin-7(4H)-one] | 20 to 250 | C | C |  |  |  |
| CCOC(=O)Cc1[nH]c2c(-c3ccccc3)c(C(F)(F)F)nn2c(=O)c1-c1nc2c(OC)cccc2o1 [Compound C1140, ethyl 2-(6-(4-methoxybenzo[d]oxazol-2-yl)-7-oxo-3-phenyl-2-(trifluoromethyl)-4,7-dihydropyrazolo[1,5-a]pyrimidin-5-yl)acetate] | 20 to 250 | C | C |  |  |  |
| Cc1[nH]c2c(-c3ccccc3)c(C(F)(F)F)nn2c(=O)c1-c1nc2ccccc2n1C1CCCCC1 [Compound C1190, 6-(1-cyclohexyl-1H-benzo[d]imidazol-2-yl)-5-methyl-3-phenyl-2-(trifluoromethyl)pyrazolo[1,5-a]pyrimidin-7(4H)-one] | 20 to 250 | C | C |  |  |  |
| COc1cccc2oc(-c3c(C)[nH]c4c(-c5ccccc5)c(C(F)(F)F)nn4c3=O)nc12 [Compound C1014, 6-(4-methoxybenzo[d]oxazol-2-yl)-5-methyl-3-phenyl-2-(trifluoromethyl)pyrazolo[1,5-a]pyrimidin-7(4H)-one] | < 20 | C |  | < 20 |  |  |
| COCc1[nH]c2c(-c3ccccc3)c(C(F)(F)F)nn2c(=O)c1-c1nc2c(OC)cccc2o1 [Compound C1056, 6-(4-methoxybenzo[d]oxazol-2-yl)-5-(methoxymethyl)-3-phenyl-2-(trifluoromethyl)pyrazolo[1,5-a]pyrimidin-7(4H)-one] | < 20 | C |  | < 20 |  |  |
| Cc1[nH]c2c(-c3ccccc3)c(C(F)(F)F)nn2c(=O)c1-c1nc2cccc(N)c2[nH]1 [Compound C1008, 6-(7-amino-1H-benzo[d]imidazol-2-yl)-5-methyl-3-phenyl-2-(trifluoromethyl)pyrazolo[1,5-a]pyrimidin-7(4H)-one] | 20 to 250 | C |  | > 100 |  |  |
| COc1cccc2oc(-c3c(C4CCC(CO)C4)[nH]c4c(-c5ccccc5)c(C(F)(F)F)nn4c3=O)nc12 (stereo not drawn) [Compound C1236, 5-(3-(hydroxymethyl)cyclopentyl)-6-(4-methoxybenzo[d]oxazol-2-yl)-3-phenyl-2-(trifluoromethyl)pyrazolo[1,5-a]pyrimidin-7(4H)-one] | < 20 | C | C |  |  |  |
| Cc1[nH]c2c(-c3ccccc3)c(C(F)(F)F)nn2c(=O)c1-c1nc2c(OCC(N)=O)cccc2o1 [Compound C1122, 2-((2-(5-methyl-7-oxo-3-phenyl-2-(trifluoromethyl)-4,7-dihydropyrazolo[1,5-a]pyrimidin-6-yl)benzo[d]oxazol-4-yl)oxy)acetamide] | < 20 |  |  | 20 to 100 |  |  |
| COc1ccc(NC(=O)c2c(C)[nH]c3c(-c4ccccc4)c(C(F)(F)F)nn3c2=O)cn1 [Compound A1088, N-(6-methoxypyridin-3-yl)-5-methyl-7-oxo-3-phenyl-2-(trifluoromethyl)-4,7-dihydropyrazolo[1,5-a]pyrimidine-6-carboxamide] | 20 to 250 |  |  | 20 to 100 |  |  |
| Cc1[nH]c2c(-c3ccccc3)c(C(F)(F)F)nn2c(=O)c1-c1nnc(N2CCCC2C)o1 (stereo not drawn) [Compound D1022, 5-methyl-6-(5-(2-methylpyrrolidin-1-yl)-1,3,4-oxadiazol-2-yl)-3-phenyl-2-(trifluoromethyl)pyrazolo[1,5-a]pyrimidin-7(4H)-one] | < 20 |  |  | > 100 |  |  |
| Cc1[nH]c2c(-c3ccccc3)c(C(F)(F)F)nn2c(=O)c1-c1nc2c(OC(C)C)cccc2o1 [Compound C1039, 6-(4-isopropoxybenzo[d]oxazol-2-yl)-5-methyl-3-phenyl-2-(trifluoromethyl)pyrazolo[1,5-a]pyrimidin-7(4H)-one] | < 20 |  |  | > 100 |  |  |
| C#Cc1nn2c(=O)c(-c3nc4c(OC)cccc4o3)c(C)[nH]c2c1-c1ccccc1 [Compound C1211, 2-ethynyl-6-(4-methoxybenzo[d]oxazol-2-yl)-5-methyl-3-phenylpyrazolo[1,5-a]pyrimidin-7(4H)-one] | < 20 |  |  | > 100 |  |  |
